Reference: US12304916B2, “Thienopyridinyl and thiazolopyridinyl compounds useful as IRAK4 inhibitors” (BRISTOL-MYERS SQUIBB COMPANY, priority 2019, dated 2025)

Assays:
IRAK4 = IRAK4 (Homo sapiens (Human), UniProt Q9NWZ3); assay: IRAK4 Inhibition Assay; assay type: biochemical; conditions: ATP 500 μM; IRAK4 0.6 nM; 60 min at room temperature
Experimental: The assays were performed in U-bottom 384-well plates. The final assay volume was 30 μL prepared from 15 μL additions of enzyme and substrates (fluoresceinated peptide and ATP) and test compounds in assay buffer (20 mM HEPES pH 7.2, 10 mM MgCl2, 0.015% Brij 35 and 4 mM DTT). The reaction was initiated by the combination of IRAK4 with substrates and test compounds. The reaction mixture was incubated at room temperature for 60 min. and terminated by adding 45 μL of 35 mM EDTA to each sample. The reaction mixture was analyzed on the Caliper LABCHIP® 3000 (Caliper, Hopkinton, MA) by electrophoretic separation of the fluorescent substrate and phosphorylated product. Inhibition data were calculated by comparison to no enzyme control reactions for 100% inhibition and vehicle-only reactions for 0% inhibition. The final concentrations of reagents in the assays are ATP, 500 μM; FL-IPTSPITTTYFFFKKK peptide 1.5 μM; IRAK4, 0.6 nM; and DMSO, 1.6%.

[1] = test system: IL-6 levels in human whole blood stimulated with a TLR2 agonist (lipoteichoic acid); assay: IRAK4 Whole Blood Assay; assay type: cell-based; conditions: 10 μg/mL lipoteichoic acid for 5 hours, IL-6 readout
Experimental: Human whole blood containing the anti-coagulant ACD-A was plated in 384-well plate (25 μL/well) and incubated with compounds for 60 minutes at 37° C. in a 5% CO2 incubator. The blood was stimulated with a TLR2 agonist, 10 μg/mL final concentration of lipoteichoic acid (Invivogen, San Diego, CA) in 25 μL RPMI (Gibco) for 5 hours in a 5% CO2 incubator. At the end of the incubation, plates were centrifuged at 2300 rpm for 5 minutes. Supernatants were harvested and analyzed for IL-6 levels by Flow Cytometry beads assay (BD Biosciences, San Jose, CA).

IRAK4, sequence (Q9NWZ3 whole entry, species assumed): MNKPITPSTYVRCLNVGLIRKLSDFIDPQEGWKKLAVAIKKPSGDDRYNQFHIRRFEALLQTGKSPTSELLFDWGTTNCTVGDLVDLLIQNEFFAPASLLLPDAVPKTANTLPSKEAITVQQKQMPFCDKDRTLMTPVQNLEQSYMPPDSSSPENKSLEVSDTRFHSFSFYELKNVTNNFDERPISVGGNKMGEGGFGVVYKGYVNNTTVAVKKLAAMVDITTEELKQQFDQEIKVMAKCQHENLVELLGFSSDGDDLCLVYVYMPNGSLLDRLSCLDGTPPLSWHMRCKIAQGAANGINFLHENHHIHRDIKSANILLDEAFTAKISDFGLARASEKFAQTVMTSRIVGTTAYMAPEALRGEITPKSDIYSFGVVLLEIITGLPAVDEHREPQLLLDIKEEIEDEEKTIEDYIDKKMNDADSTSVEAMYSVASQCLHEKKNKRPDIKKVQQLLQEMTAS

Row | SMILES | IC50 (IRAK4) [µM] | EC50 [1] [µM]
1 | CC(C)Nc1c(C(=O)NC[C@@H](F)C(C)(C)O)cnc2sc(-c3cn[nH]c3)cc12 [Example 21, (R)-N-(2-fluoro-3-hydroxy-3-methylbutyl)-4-(isopropylamino)-2-(1H-pyrazol-4-yl)thieno[2,3-b]pyridine-5-carboxamide] | 0.0024 | > 20
2 | CC(C)Nc1c(C(=O)NC[C@@H](F)C(C)(C)O)cnc2sc(-c3cccnc3)cc12 [Example 22, (R)-N-(2-fluoro-3-hydroxy-3-methylbutyl)-4-(isopropylamino)-2-(pyridin-3-yl)thieno[2,3-b]pyridine-5-carboxamide] | 0.0053 | 3.42
3 | CC(C)Nc1c(C(=O)NC[C@@H](F)C(C)(C)O)cnc2sc(-c3ccncc3)cc12 [Example 23, (R)-N-(2-fluoro-3-hydroxy-3-methylbutyl)-4-(isopropylamino)-2-(pyridin-4-yl) thieno[2,3-b]pyridine-5-carboxamide] | 0.0048 | 4.25
4 | CC(C)Nc1c(C(=O)NC[C@@H](F)C(C)(C)O)cnc2sc(-c3cccc(C#N)c3)cc12 [Example 24, (R)-2-(3-cyanophenyl)-N-(2-fluoro-3-hydroxy-3-methylbutyl)-4-(isopropylamino)thieno[2,3-b]pyridine-5-carboxamide] | 0.0168 | > 20
5 | CC(C)Nc1c(C(=O)NC[C@@H](F)C(C)(C)O)cnc2sc(-c3ccc(C#N)nc3)cc12 [Example 25, (R)-2-(6-cyanopyridin-3-yl)-N-(2-fluoro-3-hydroxy-3-methylbutyl)-4-(isopropylamino) thieno[2,3-b]pyridine-5-carboxamide] | 0.0189 | > 20
6 | CC(C)CCNC(=O)c1cnc2sc(-c3ccncc3)cc2c1NC(C)C [Example 29, N-isopentyl-4-(isopropylamino)-2-(pyridin-4-yl)thieno[2,3-b]pyridine-5-carboxamide] | 0.0129 | 2.4
7 | CC(C)Nc1c(C(=O)NC[C@@H](F)C(C)(C)O)cnc2sc(-c3ccc(C#N)nc3)cc12 [Example 64, (R)-2-(6-cyanopyridin-3-yl)-N-(2-fluoro-3-hydroxy-3-methylbutyl)-4-(isopropylamino)thieno[2,3-b]pyridine-5-carboxamide] | 0.0085 | –
8 | CC(C)Nc1c(C(=O)NC[C@@H](F)C(C)(C)O)cnc2sc(-c3cncc(C#N)c3)cc12 [Example 65, (R)-2-(5-cyanopyridin-3-yl)-N-(2-fluoro-3-hydroxy-3-methylbutyl)-4-(isopropylamino)thieno[2,3-b]pyridine-5-carboxamide] | 0.0186 | –
9 | CC(C)Nc1c(C(=O)NCCCNS(C)(=O)=O)cnc2sc(-c3ccc(=O)[nH]c3)cc12 [Example 67, 4-(isopropylamino)-N-(3-(methylsulfonamido)propyl)-2-(6-oxo-1,6-dihydropyridin-3-yl)thieno[2,3-b]pyridine-5-carboxamide] | 0.0428 | –
10 | CC(C)Nc1c(-n2cc(CCC(C)(C)O)nn2)cnc2sc(-c3cccnc3)cc12 [Example 74, 4-(1-(4-(isopropylamino)-2-(pyridin-3-yl)thieno[2,3-b]pyridin-5-yl)-1H-1,2,3-triazol-4-yl)-2-methylbutan-2-ol] | 0.171 | –
11 | CC(C)Nc1c(-n2cc(CCC(C)(C)O)nn2)cnc2sc(-c3ccncc3)cc12 [Example 75, 4-(1-(4-(isopropylamino)-2-(pyridin-4-yl)thieno[2,3-b]pyridin-5-yl)-1H-1,2,3-triazol-4-yl)-2-methylbutan-2-ol] | 0.0448 | –
12 | CC(C)CCc1cn(-c2cnc3sc(-c4ccncc4)cc3c2NC(C)C)nn1 [Example 76, 5-(4-isopentyl-1H-1,2,3-triazol-1-yl)-N-isopropyl-2-(pyridin-4-yl)thieno[2,3-b]pyridin-4-amine] | 0.0441 | –

Next, values leading:

Row | IC50 (IRAK4) [µM] | EC50 [1] [µM] | SMILES
13 | 0.002 | 0.58 | CC(C)Nc1c(C(=O)NC[C@@H](F)C(C)(C)O)cnc2sc(-c3cncs3)cc12 [Example 27, (R)-N-(2-fluoro-3-hydroxy-3-methylbutyl)-4-(isopropylamino)-2-(thiazol-5-yl) thieno[2,3-b]pyridine-5-carboxamide]
14 | 0.0075 | > 20 | CC(C)CCNC(=O)c1cnc2sc(-c3cncs3)cc2c1NC(C)C [Example 30, N-isopentyl-4-(isopropylamino)-2-(thiazol-5-yl)thieno[2,3-b]pyridine-5-carboxamide]
15 | 0.215 | – | CC(C)Nc1c(C(=O)NCC2(CO)COC2)cnc2sc(-c3cncs3)cc12 [Example 47, N-((3-(hydroxymethyl)oxetan-3-yl)methyl)-4-(isopropylamino)-2-(thiazol-5-yl)thieno[2,3-b]pyridine-5-carboxamide]
16 | 1.88 | – | C[C@H](CCO)NC(=O)c1cnc2sc(-c3cncs3)cc2c1Nc1cnn(CC(F)F)c1 [Example 48, (R)-4-((1-(2,2-difluoroethyl)-1H-pyrazol-4-yl)amino)-N-(4-hydroxybutan-2-yl)-2-(thiazol-5-yl)thieno[2,3-b]pyridine-5-carboxamide]
17 | 0.408 | – | O=C(N[C@H]1CC[C@H](O)CC1)c1cnc2sc(-c3cncs3)cc2c1Nc1cnn(CC(F)F)c1 [Example 49, 4-((1-(2,2-difluoroethyl)-1H-pyrazol-4-yl)amino)-N-((1s,4s)-4-hydroxycyclohexyl)-2-(thiazol-5-yl)thieno[2,3-b]pyridine-5-carboxamide]
18 | 1.23 | – | COCCNC(=O)c1cnc2sc(-c3cncs3)cc2c1Nc1cnn(CC(F)F)c1 [Example 51, 4-((1-(2,2-difluoroethyl)-1H-pyrazol-4-yl)amino)-N-(2-methoxyethyl)-2-(thiazol-5-yl)thieno[2,3-b]pyridine-5-carboxamide]
19 | 0.0728 | – | CC(C)(O)[C@H](F)CNC(=O)c1cnc2sc(-c3cncs3)cc2c1Nc1cnn(CC(F)F)c1 [Example 52, (R)-4-((1-(2,2-difluoroethyl)-1H-pyrazol-4-yl)amino)-N-(2-fluoro-3-hydroxy-3-methylbutyl)-2-(thiazol-5-yl)thieno[2,3-b]pyridine-5-carboxamide]
20 | 0.193 | – | O=C(N[C@H]1CC[C@H](O)CC1)c1cnc2sc(-c3cncs3)cc2c1NC1COC1 [Example 54, N-((1s,4s)-4-hydroxycyclohexyl)-4-(oxetan-3-ylamino)-2-(thiazol-5-yl)thieno[2,3-b]pyridine-5-carboxamide]
21 | 0.2 | – | O=C(NCc1ncn[nH]1)c1cnc2sc(-c3cncs3)cc2c1NC1COC1 [Example 55, N-((1H-1,2,4-triazol-5-yl)methyl)-4-(oxetan-3-ylamino)-2-(thiazol-5-yl)thieno[2,3-b]pyridine-5-carboxamide]
22 | 0.0535 | – | COc1ncc(-c2cc3c(NC(C)C)c(C(=O)NC[C@@H](F)C(C)(C)O)cnc3s2)s1 [Example 58, (R)-N-(2-fluoro-3-hydroxy-3-methylbutyl)-4-(isopropylamino)-2-(2-methoxythiazol-5-yl)thieno[2,3-b]pyridine-5-carboxamide]
23 | 0.0975 | – | CC(C)Nc1c(C(=O)NC2CC(O)C2)cnc2sc(-c3cncs3)cc12 (stereo not shown) [Example 61, N-(3-hydroxycyclobutyl)-4-(isopropylamino)-2-(thiazol-5-yl) thieno[2,3-b]pyridine-5-carboxamide]
24 | 0.0351 | – | CC(C)Nc1c(C(=O)NC[C@@H](F)C(C)(C)O)cnc2sc(-c3cscn3)cc12 [Example 62, (R)-N-(2-fluoro-3-hydroxy-3-methylbutyl)-4-(isopropylamino)-2-(thiazol-4-yl)thieno[2,3-b]pyridine-5-carboxamide]
25 | 0.0371 | – | CC(=O)N1CCC(NC(=O)c2cnc3sc(-c4ccc(=O)[nH]c4)cc3c2NC(C)C)CC1 [Example 66, N-(1-acetylpiperidin-4-yl)-4-(isopropylamino)-2-(6-oxo-1,6-dihydropyridin-3-yl)thieno[2,3-b]pyridine-5-carboxamide]
26 | 0.0722 | – | CC(C)Nc1c(C(=O)NCC2CCS(=O)(=O)C2)cnc2sc(-c3cncs3)cc12 (stereo not shown) [Example 69, N-((1,1-dioxidotetrahydrothiophen-3-yl)methyl)-4-(isopropylamino)-2-(thiazol-5-yl)thieno[2,3-b]pyridine-5-carboxamide]
27 | 0.0226 | – | CC(C)Nc1c(C(=O)NCCC2CCNC2)cnc2sc(-c3ccc(=O)[nH]c3)cc12 (stereo not shown) [Example 70, 4-(isopropylamino)-2-(6-oxo-1,6-dihydropyridin-3-yl)-N-(2-(pyrrolidin-3-yl)ethyl)thieno[2,3-b]pyridine-5-carboxamide]
28 | 0.0242 | – | CC(C)Nc1c(C(=O)NCCN2CCS(=O)(=O)CC2)cnc2sc(-c3ccc(=O)[nH]c3)cc12 [Example 73, N-(2-(1,1-dioxidothiomorpholino)ethyl)-4-(isopropylamino)-2-(6-oxo-1,6-dihydropyridin-3-yl)thieno[2,3-b]pyridine-5-carboxamide]
29 | 0.289 | – | CC(C)CCc1nc(-c2cnc3sc(-c4cncs4)cc3c2NC(C)C)n[nH]1 [Example 77, 5-(5-isopentyl-1H-1,2,4-triazol-3-yl)-N-isopropyl-2-(thiazol-5-yl)thieno[2,3-b]pyridin-4-amine]
